Experimental data: patent publication EP2857388A1, “Azoles containing sulfone” (Grünenthal GmbH, priority 2013, dated 2015)

molecular target: T1, human B1R (Homo sapiens, UniProt P46663); assay: Functional assay at bradykinin receptor 1 (B1R): Ca2+ fluorescence (Fluo-4) in FLIPR/Novostar, antagonist mode; format: cell-based; conditions: test substance 10 µM; CHO K1 cells stably transfected with human B1R gene (hB1R-Zellen); agonist Lys-Des-Arg9-Bradykinin at EC80; % inhibition relative to maximal achievable inhibition; read-out: % Inhibierung (human B1R) bei 10 µM
T1 construct: expressed in transfected cells; host or cells: CHO K1 cells (Chinese Hamster Ovary), stably transfected
T1 sequence (P46663 1-353): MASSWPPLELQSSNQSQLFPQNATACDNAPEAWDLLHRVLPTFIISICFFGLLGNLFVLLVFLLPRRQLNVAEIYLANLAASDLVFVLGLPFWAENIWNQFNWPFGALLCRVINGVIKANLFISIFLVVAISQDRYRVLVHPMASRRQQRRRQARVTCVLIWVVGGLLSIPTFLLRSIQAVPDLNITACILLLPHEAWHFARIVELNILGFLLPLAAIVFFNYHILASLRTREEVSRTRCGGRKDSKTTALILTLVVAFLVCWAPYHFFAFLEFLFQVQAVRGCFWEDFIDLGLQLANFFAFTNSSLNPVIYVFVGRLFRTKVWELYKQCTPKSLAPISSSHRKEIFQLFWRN
Procedure: Die agonistische bzw. antagonistische Wirkung von Substanzen kann am Bradykinin Rezeptor 1 (B1R) der Spezies Mensch und Ratte mit ektopisch exprimierenden Zelllinien (CHO K1 Zellen) und mit Hilfe eines Ca^2+-sensitiven Farbstoffs (Fluo-4) im Fluorescent Imaging Plate Reader (FLIPR) quantifiziert werden. Die Angabe in % Aktivierung wird bezogen auf das Ca^2+-Signal nach Zugabe von Lys-Des-Arg^9-Bradykinin ([…]), bzw. Des-Arg^9-Bradykinin (100 nM). Antagonisten führen zu einer Unterdrückung des Ca^2+-Einstroms nach der Zugabe des Agonisten. Angegeben werden % Inhibition im Vergleich zu der maximal erreichbaren Inhibition.
Die agonistische bzw. antagonistische Wirkung von Substanzen kann am Bradykinin Rezeptor 1 (B1R) der Spezies Mensch und Ratte mit folgendem Assay bestimmt werden. Gemäß diesem Assay wird der intrazelluläre Ca^2+-Anstieg nach Gabe eines B1 R Agonisten mit Hilfe eines Ca^2+-sensitiven Farbstoffs (Typ Fluo-4, Molecular Probes Europe BV, Leiden NL) im Fluorescent Imaging Plate Reader (FLIPR, Molecular Devices, Sunnyvale, USA) und/oder im Novostar (BMG Labtech GmbH, Offenburg, DE) quantifiziert.
Es werden Chinese Hamster Ovary Zellen (CHO K1 Zellen) verwendet, die stabil mit dem humanen B1 R-Gen (hB1R-Zellen) bzw. dem B1 R-Gen der Ratte (rB1R-Zellen) transfiziert sind. Für funktionelle Untersuchungen werden diese Zellen auf schwarze 96-Loch-Platten mit klarem Boden (BD Biosciences, Heidelberg, DE oder Greiner, Frickenhausen, DE) in einer Dichte von 20.000 - 35.000 Zellen/Loch ausplattiert. Über Nacht werden die Zellen bei 37°C und 5 % CO2 in Kulturmedium (hB1 R-Zellen: Nutrient Mixture Ham's F12, Gibco Invitrogen GmbH, Karlsruhe, Deutschland oder DMEM, Sigma-Aldrich, Taufkirchen, Deutschland; rB1R-Zellen: D-MEM/F12, Gibco Invitrogen GmbH, Karlsruhe, DE) mit 10 Vol-% FBS (Fetal bovine serum, Gibco Invitrogen GmbH, Karlsruhe, DE oder PAN Biotech GmbH, Aidenbach, DE) belassen. Am folgenden Tag werden die Zellen mit 2,13 µM Fluo-4 (Molecular Probes Europe BV, Leiden, NL) in HBSS-Puffer (Hank's buffered saline solution, Gibco Invitrogen GmbH, Karlsruhe, DE) mit 2,5 mM Probenecid (Sigma-Aldrich, Taufkirchen, DE) und 10 mM HEPES (Sigma-Aldrich, Taufkirchen, DE) für 60 min bei 37°C beladen. Anschließend werden die Platten 2 x mit HBSS-Puffer gewaschen und mit HBSS-Puffer versetzt, der zusätzlich 0,1 % BSA (bovines Serumalbumin; Sigma-Aldrich, Taufkirchen, Deutschland), 5,6 mM Glucose und 0,05 % Gelatine (Merck KGaA, Darmstadt, DE) enthält. Nach einer weiteren Inkubation von 20 Minuten bei RT werden die Platten zur Ca^2+-Messung im FLIPR oder Novostar eingesetzt. Alternativ wird mit Puffer A (15 mM HEPES, 80 mM NaCl, 5 mM KCI, 1,2 mM CaCl2, 0,7 mM MgSO4, 2g/L Glucose, 2,5 mM Probenecid) gewaschen und mit Puffer A versetzt mit 2,5 µM Fluo-4 und 0,025 % Pluronic F127 (Sigma-Aldrich, Taufkirchen, DE) beladen. Danach werden die Zellen 2 x mit Puffer A gewaschen und für 30 Minuten mit Puffer A, der zusätzlich 0,05 % BSA und 0,05 % Gelatine enthält bei RT inkubiert und danach zur Ca^2+-Messung im FLIPR oder Novostar eingesetzt.
Die Ca^2+-abhängige Fluoreszenz wird dabei vor und nach Zugabe von Substanzen gemessen (λex = 488 nm, λem = 540 nm). Die Quantifizierung erfolgt durch die Messung der höchsten Fluoreszenzintensität (FC, Fluorescence Counts) über die Zeit.
Das FLIPR-Protokoll besteht aus 2 Substanzzugaben, die im FLIPR pipettiert werden. Bei Messungen im Novostar wird nur die zweite Substanzzugabe im Gerät pipettiert. Beide Geräte messen die Fluoreszenzintensität über die Zeit. Zunächst werden Testsubstanzen (10 µM) auf die Zellen pipettiert und der intrazelluläre Ca^2+-Anstieg mit der Kontrolle (hB1 R: Lys-Des-Arg^9-Bradykinin >= 50 nM; rB1 R: Des-Arg^9-Bradykinin >= 1 µM) verglichen. Daraus ergibt sich die Angabe in % Aktivierung bezogen auf das Ca^2+-Signal nach Zugabe von Lys-Des-Arg^9-Bradykinin (>= 50 nM), bzw. Des-Arg^9-Bradykinin (>=1 µM). Nach 6-20 Minuten Inkubation werden Lys-Des-Arg^9-Bradykinin (hB1 R) bzw. […]

Row | Compound | inhibition at 10 µM
1 | COc1cc(C)c(S(=O)(=O)Cc2nc(CC(=O)NC3CCC(NC4CC4)CC3(C)C)no2)c(C)c1 (stereo not drawn) [CC-35, N-[4-(Cyclopropylamino)-2,2-dimethyl-cyclohexyl]-2-[5-[[(4-methoxy-2,6-dimethyl-phenyl)sulfonyl]-methyl]-[1,2,4]oxadiazol-3-yl]-acetamid] | 100%
2 | COc1cc(C)c(S(=O)(=O)Cc2nnc(CC(=O)NC3CCC(c4ccncc4)CC3(C)C)o2)c(C)c1 (stereo not drawn) [CC-36, N-(2,2-Dimethyl-4-pyridin-4-yl-cyclohexyl)-2-[5-[[(4-methoxy-2,6-dimethyl-phenyl)sulfonyl]-methyl]-[1,3,4]oxadiazol-2-yl]-acetamid] | 100%
3 | COc1cc(C)c(S(=O)(=O)Cc2nc(CC(=O)NC3CCC(c4ccncc4)CC3(C)C)no2)c(C)c1 (stereo not drawn) [CC-37, N-(2,2-Dimethyl-4-pyridin-4-yl-cyclohexyl)-2-[5-[[(4-methoxy-2,6-dimethyl-phenyl)sulfonyl]-methyl]-[1,2,4]oxadiazol-3-yl]-acetamid] | 99%
4 | COc1cc(C)c(S(=O)(=O)Cc2nnc(CC(=O)NC3CCC(N4CCCC4)CC3)o2)c(C)c1 (stereo not drawn) [CC-40] | 100%
5 | COc1cc(C)c(S(=O)(=O)Cc2nc(CC(=O)NC3CCNCC3)no2)c(C)c1 [CC-42, 2-[5-[[(4-Methoxy-2,6-dimethyl-phenyl)sulfonyl]-methyl]-[1,2,4]oxadiazol-3-yl]-N-piperidin-4-yl-acetamid] | 100%
6 | Cc1cc(S(=O)(=O)Cc2noc(CC(=O)NC3CCC(N4CCCC4)CC3(C)C)n2)c(C)cc1Cl (stereo not drawn) [CC-43, 2-[3-[[(4-Chlor-2,5-dimethyl-phenyl)sulfonyl]-methyl]-[1,2,4]oxadiazol-5-yl]-N-(2,2-dimethyl-4-pyrrolidin-1-yl-cyclohexyl)-acetamid] | 99%
7 | Cc1cc(S(=O)(=O)Cc2noc(CC(=O)NC3CCC(N4CCN(C)CC4)CC3(C)C)n2)c(C)cc1Cl (stereo not drawn) [CC-45, 2-[3-[[(4-Chlor-2,5-dimethyl-phenyl)sulfonyl]-methyl]-[1,2,4]oxadiazol-5-yl]-N-[2,2-dimethyl-4-(4-methyl-piperazin-1-yl)-cyclohexyl]-acetamid] | 100%
8 | CC(=O)N1CCC(NC(=O)Cc2nc(CS(=O)(=O)c3cc(C)c(Cl)cc3C)no2)C(C)(C)C1 (stereo not drawn) [CC-46, N-(1-Acetyl-3,3-dimethyl-piperidin-4-yl)-2-[3-[[(4-chlor-2,5-dimethyl-phenyl)sulfonyl]-methyl]-[1,2,4]oxadiazol-5-yl]-acetamid] | 64%
9 | CC(=O)N1CCC(NC(=O)Cc2nc(CS(=O)(=O)c3cccc(Cl)c3Cl)no2)C(C)(C)C1 (stereo not drawn) [CC-47, N-(1-Acetyl-3,3-dimethyl-piperidin-4-yl)-2-[3-[[(2,3-dichlor-phenyl)sulfonyl]-methyl]-[1,2,4]oxa-diazol-5-yl]-acetamid] | 62%
10 | CN1CCN(C2CCC(NC(=O)Cc3nc(CS(=O)(=O)c4cccc(Cl)c4Cl)no3)C(C)(C)C2)CC1 (stereo not drawn) [CC-48, 2-[3-[[(2,3-Dichlor-phenyl)sulfonyl]-methyl]-[1,2,4]oxadiazol-5-yl]-N-[2,2-dimethyl-4-(4-methyl-piperazin-1-yl)-cyclohexyl]-acetamid] | 81%
11 | CN(C)C1CCC(NC(=O)Cc2nc(CS(=O)(=O)c3ccc(Cl)c(Cl)c3)no2)CC1 (stereo not drawn) [CC-50, 2-[3-[[(3,4-Dichlorphenyl)sulfonyl]-methyl]-[1,2,4]oxadiazol-5-yl]-N-(4-dimethylamino-cyclohexyl)-acetamid] | 54%
12 | COc1cc(C)c(S(=O)(=O)Cc2nc(CC(=O)NC3CCNCC3(C)C)no2)c(C)c1 (stereo not drawn) [CC-52, N-(3,3-Dimethyl-piperidin-4-yl)-2-[5-[[(4-methoxy-2,6-dimethyl-phenyl)sulfonyl]-methyl]-[1,2,4]oxa-diazol-3-yl]-acetamid] | 100%
13 | CC1(C)CC(N2CCCC2)CCC1NC(=O)Cc1nc(CS(=O)(=O)c2ccc(Cl)c(Cl)c2)no1 (stereo not drawn) [CC-53, 2-[3-[[(3,4-Dichlorphenyl)sulfonyl]-methyl]-[1,2,4]oxadiazol-5-yl]-N-(2,2-dimethyl-4-pyrrolidin-1-yl-cyclohexyl)-acetamid] | 100%
14 | O=C(Cc1nc(CS(=O)(=O)c2cccc(Cl)c2Cl)no1)NC1CCNCC1 [CC-54, 2-[3-[[(2,3-Dichlor-phenyl)sulfonyl]-methyl]-[1,2,4]oxadiazol-5-yl]-N-piperidin-4-yl-acetamid] | 52%
15 | Cc1cc(S(=O)(=O)Cc2noc(CC(=O)NC3CCC(NC4CC4)CC3(C)C)n2)c(C)cc1Cl (stereo not drawn) [CC-57, 2-[3-[[(4-Chlor-2,5-dimethyl-phenyl)sulfonyl]-methyl]-[1,2,4]oxadiazol-5-yl]-N-[4-(cyclopropyl-amino)-2,2-dimethyl-cyclohexyl]-acetamid] | 100%
16 | CN(C)C1CCC(NC(=O)Cc2nc(CS(=O)(=O)c3cccc(Cl)c3Cl)no2)CC1 (stereo not drawn) [CC-59, 2-[3-[[(2,3-Dichlor-phenyl)sulfonyl]-methyl]-[1,2,4]oxadiazol-5-yl]-N-(4-dimethylamino-cyclohexyl)-acetamid] | 63%
17 | Cc1cc(S(=O)(=O)Cc2noc(CC(=O)NC3CCNCC3(C)C)n2)c(C)cc1Cl (stereo not drawn) [CC-62, 2-[3-[[(4-Chlor-2,5-dimethyl-phenyl)sulfonyl]-methyl]-[1,2,4]oxadiazol-5-yl]-N-(3,3-dimethyl-piperidin-4-yl)-acetamid] | 54%
18 | COc1cc(C)c(S(=O)(=O)Cc2nnc(CC(=O)NC3CCN(C(C)=O)CC3(C)C)o2)c(C)c1 (stereo not drawn) [CC-69, N-(1-Acetyl-3,3-dimethyl-piperidin-4-yl)-2-[5-[[(4-methoxy-2,6-dimethyl-phenyl)sulfonyl]-methyl]-[1,3,4]oxadiazol-2-yl]-acetamid] | 81%
19 | Cc1cc(S(=O)(=O)Cc2noc(CC(=O)NC3CCC(N4CCCC4)CC3)n2)c(C)cc1Cl (stereo not drawn) [CC-70, 2-[3-[[(4-Chlor-2,5-dimethyl-phenyl)sulfonyl]-methyl]-[1,2,4]oxadiazol-5-yl]-N-(4-pyrrolidin-1-yl-cyclohexyl)-acetamid] | 93%
20 | O=C(Cc1nc(CS(=O)(=O)c2cccc(Cl)c2Cl)no1)NC1CCC(N2CCCC2)CC1 (stereo not drawn) [CC-71, 2-[3-[[(2,3-Dichlor-phenyl)sulfonyl]-methyl]-[1,2,4]oxadiazol-5-yl]-N-(4-pyrrolidin-1-yl-cyclohexyl)-acetamid] | 73%
21 | COCCN1CCC(NC(=O)Cc2nc(CS(=O)(=O)c3cccc(Cl)c3Cl)no2)C(C)(C)C1 (stereo not drawn) [CC-72, 2-[3-[[(2,3-Dichlor-phenyl)sulfonyl]-methyl]-[1,2,4]oxadiazol-5-yl]-N-[1-(2-methoxy-ethyl)-3,3-di-methyl-piperidin-4-yl]-acetamid] | 60%
